From patent publication US11098056B2, “UDP glycosyltransferase inhibitors and methods of use” (GENZYME CORPORATION, priority 2018, dated 2021) come the findings set out here.

Structures can show the parent of a compound that is named as a salt.

The assay addresses T1, UGT8 (Homo sapiens, UniProt Q16880).
T1 construct: host or cells: OE19 cells
T1 sequence (Q16880 21-541): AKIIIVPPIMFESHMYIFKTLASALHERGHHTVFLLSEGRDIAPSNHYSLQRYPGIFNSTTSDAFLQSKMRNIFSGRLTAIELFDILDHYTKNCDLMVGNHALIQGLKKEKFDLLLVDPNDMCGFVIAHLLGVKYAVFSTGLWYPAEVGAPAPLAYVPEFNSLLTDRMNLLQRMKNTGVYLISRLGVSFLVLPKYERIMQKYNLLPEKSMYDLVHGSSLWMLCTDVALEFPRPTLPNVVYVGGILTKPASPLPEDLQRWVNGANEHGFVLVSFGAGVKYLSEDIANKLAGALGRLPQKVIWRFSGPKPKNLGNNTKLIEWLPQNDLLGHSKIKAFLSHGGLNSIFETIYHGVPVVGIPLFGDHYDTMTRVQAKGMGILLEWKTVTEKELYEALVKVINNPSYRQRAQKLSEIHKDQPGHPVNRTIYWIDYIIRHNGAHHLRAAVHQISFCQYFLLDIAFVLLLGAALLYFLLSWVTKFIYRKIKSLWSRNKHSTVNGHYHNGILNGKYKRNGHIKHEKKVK
The assay can be described thus: In vitro sulfatide (SFT) synthesis inhibition in OE19 cells, LC-MS/MS readout. It counts as cell-based. The following applies: 72 hr, sulfatide by LC-MS/MS; for IC50: read-out: Potency range (IC50, In-vitro SFT). Put shortly: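 OE19 cells, 2,500/well, exposed to compound dose-downs in triplicate for 72 hr at 37° C (screening at 10 μM final). Sulfatide quantified by LC-MS/MS (C8 UPLC, isocratic, negative-ion MRM) with C17 SFT internal standard; IC50 from concentration-response curves.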

As usually defined, the IC50 is the concentration needed to halve the response being measured. For the compound `CNC(=O)c1csc2c(C(F)(F)F)c(C)c(N3CCN(CC(=O)NC(C)C)CC3)nc12` [Example 47, 5-(4-(2-(Isopropylamino)-2-oxoethyl)piperazin-1-yl)-N,6-dimethyl-7-(trifluoromethyl)thieno[3,2-b]pyridine-3-carboxamide], the IC50 lay within 100 to 1000 nM.

For `CNC(=O)c1csc2c(C(F)(F)F)cc(N3CCC(OC(=O)NCC4CN(C)CCO4)CC3)nc12` (centres unmarked) [Example 115, 1-(3-(Methylcarbamoyl)-7-(trifluoromethyl)thieno[3,2-b]pyridin-5-yl)piperidin-4-yl ((4-methylmorpholin-2-yl)methyl)carbamate], the IC50 was > 1000 nM.

As for `CNC(=O)c1csc2c(C(F)(F)F)cc(N3CCC(Oc4cccc(C)n4)CC3)nc12` [Example 145, N-Methyl-5-(4-((6-methylpyridin-2-yl)oxy)piperidin-1-yl)-7-(trifluoromethyl)thieno[3,2-b]pyridine-3-carboxamide], the IC50 was < 100 nM.

As for `[2H]C([2H])([2H])NC(=O)c1csc2c(C(F)(F)F)cc(N3CCC(OC(=O)NC4CC4)CC3)nc12` [Example 653, [1-[3-(Trideuteriomethylcarbamoyl)-7-(trifluoromethyl)thieno[3,2-b]pyridin-5-yl]-4-piperidyl] N-cyclopropylcarbamate], the IC50 is < 100 nM.

Turning to `CNC(=O)c1csc2c(C(F)(F)F)cc(N3CCN(CC4CN(C(C)C)CCO4)CC3)nc12` (centres unmarked) [Example 552, 5-(4-((4-Isopropylmorpholin-2-yl)methyl)piperazin-1-yl)-N-methyl-7-(trifluoromethyl)thieno[3,2-b]pyridine-3-carboxamide trifluoroacetate], the IC50 was > 1000 nM.

With `CNC(=O)c1csc2c(C(F)(F)F)c(C)c(O[C@@H]3CCN(C(=O)O[C@@H](C)C4CC4)[C@H](C)C3)nc12` [Example 866, (S)-1-Cyclopropylethyl (2R,4R)-2-methyl-4-((6-methyl-3-(methylcarbamoyl)-7-(trifluoromethyl)thieno[3,2-b]pyridin-5-yl)oxy)piperidine-1-carboxylate], the IC50 is < 100 nM.

`CNC(=O)c1csc2c(C(F)(F)F)cc(N3CCC(OC(=O)N4CCC4)CC3)nc12` [Example 60, 1-(3-(Methylcarbamoyl)-7-(trifluoromethyl)thieno[3,2-b]pyridin-5-yl)piperidin-4-yl azetidine-1-carboxylate]: the IC50 is < 100 nM.

Turning to `CNC(=O)c1csc2c(C(F)(F)F)cc(N3CCN(CC(C)OCC4CC4)CC3)nc12` (racemic) [Example 39, (+/−)-5-(4-(2-(Cyclopropylmethoxy)propyl)piperazin-1-yl)-N-methyl-7-(trifluoromethyl)thieno[3,2-b]pyridine-3-carboxamide], the IC50 was 100 to 1000 nM.

In the case of `CNC(=O)c1csc2c(C(F)(F)F)c(C)c(O[C@@H]3CCN(C(=O)OC(C)(C)C)C[C@@H]3F)nc12` (racemic) [Example 387, (+/−)-tert-Butyl cis-3-fluoro-4-((6-methyl-3-(methylcarbamoyl)-7-(trifluoromethyl)thieno[3,2-b]pyridin-5-yl)oxy)piperidine-1-carboxylate], the half-inhibitory concentration (IC50) was < 100 nM.

As to `CNC(=O)c1csc2c(C(F)(F)F)c(C)c(OC3CCN(C(=O)OCCOC(F)(F)F)CC3)nc12` [Example 390, 2-(Trifluoromethoxy)ethyl 4-((6-methyl-3-(methylcarbamoyl)-7-(trifluoromethyl)thieno[3,2-b]pyridin-5-yl)oxy)piperidine-1-carboxylate], the IC50 is < 100 nM.

On to `CNC(=O)c1csc2c(C(F)(F)F)cc(OC3CC4(CCN4C(=O)OCCOC(F)(F)F)C3)nc12` (centres unmarked) [Example 212, 2-(Trifluoromethoxy)ethyl 6-((3-(methylcarbamoyl)-7-(trifluoromethyl)thieno[3,2-b]pyridin-5-yl)oxy)-1-azaspiro[3.3]heptane-1-carboxylate], for which the IC50 lay within 100 to 1000 nM.

As to `CNC(=O)c1csc2c(C(F)(F)F)cc(N3CCC(OC(=O)NCC4CC4)CC3)nc12.Cl` [Example 669, [1-[3-(Methylcarbamoyl)-7-(trifluoromethyl)thieno[3,2-b]pyridin-5-yl]-4-piperidyl] N-(cyclopropylmethyl)carbamate hydrochloride], the “Potency range (IC50, In-vitro SFT)” value is given as “A (A < 0.1 uM)”.

On to `CNC(=O)c1csc2c(C(F)(F)F)cc(O[C@H]3CCN(C(=O)OCC4CC4)C3)nc12` [Example 595, Cyclopropylmethyl (S)-3-((3-(methylcarbamoyl)-7-(trifluoromethyl)thieno[3,2-b]pyridin-5-yl)oxy)pyrrolidine-1-carboxylate], for which the IC50 was < 100 nM.

On to `CNC(=O)c1csc2c(C(F)(F)F)cc(N3CC[C@H](OC(=O)NC4CC4)[C@@H](F)C3)nc12` (racemic) [Example 492, (+/−)-trans-3-Fluoro-1-(3-(methylcarbamoyl)-7-(trifluoromethyl)thieno[3,2-b]pyridin-5-yl)piperidin-4-yl cyclopropylcarbamate], for which the IC50 is < 100 nM.

Turning to `CNC(=O)c1csc2c(C(F)(F)F)cc(O[C@H]3CCN(C(=O)NCC4CC4)C3)nc12` [Example 594, (S)-5-((1-((Cyclopropylmethyl)carbamoyl)pyrrolidin-3-yl)oxy)-N-methyl-7-(trifluoromethyl)thieno[3,2-b]pyridine-3-carboxamide], the IC50 lay within 100 to 1000 nM.

`CNC(=O)c1csc2ccc(N3CCC(OC(=O)N[C@@H](C)COC(F)(F)F)CC3)nc12` [Example 142, 1-(3-(Methylcarbamoyl)thieno[3,2-b]pyridin-5-yl)piperidin-4-yl (S)-(1-(trifluoromethoxy)propan-2-yl)carbamate]: the 50% inhibitory concentration (IC50) was < 100 nM.

`CNC(=O)c1csc2c(C(F)(F)F)cc(OCC3CN(C(=O)OC(C)(C)C)C3)nc12` [Example 585, tert-Butyl 3-(((3-(methylcarbamoyl)-7-(trifluoromethyl)thieno[3,2-b]pyridin-5-yl)oxy)methyl)azetidine-1-carboxylate]: the concentration for half-maximal inhibition (IC50) is 100 to 1000 nM.

As to `COC(=O)c1csc2c(C(F)(F)F)cc(N3CCN(CC(=O)NC(C)C)CC3)nc12` [Example 10, Methyl 5-(4-(2-(isopropylamino)-2-oxoethyl)piperazin-1-yl)-7-(trifluoromethyl)thieno[3,2-b]pyridine-3-carboxylate], the IC50 was < 100 nM.

`CNC(=O)c1csc2c(C(F)(F)F)cc(N3CCC(OC(=O)N[C@H](C)CF)CC3)nc12` [Example 692, [1-[3-(Methylcarbamoyl)-7-(trifluoromethyl)thieno[3,2-b]pyridin-5-yl]-4-piperidyl] N-[(1R)-2-fluoro-1-methyl-ethyl]carbamate]: the concentration for half-maximal inhibition (IC50) was < 100 nM.

For the compound `CNC(=O)c1c(C)sc2c(C(F)(F)F)cc(N3CCN(CC(=O)NC(C)C)CC3)nc12` [Example 408, 5-(4-(2-(Isopropylamino)-2-oxoethyl)piperazin-1-yl)-N,2-dimethyl-7-(trifluoromethyl)thieno[3,2-b]pyridine-3-carboxamide], the IC50 is 100 to 1000 nM.

Consider `CNC(=O)c1csc2c(C(F)(F)F)cc(N3CC[C@H](OC(=O)N(C(C)C)C(C)C)[C@@H](F)C3)nc12` (racemic) [Example 488, (+/−)-trans-3-Fluoro-1-(3-(methylcarbamoyl)-7-(trifluoromethyl)thieno[3,2-b]pyridin-5-yl)piperidin-4-yl diisopropylcarbamate], for which the IC50 was < 100 nM.

In the case of `CNC(=O)c1csc2c(C(F)(F)F)cc(N3CCC(OC(=O)NC(C)C)C(F)(F)C3)nc12` (centres unmarked) [Example 91, 3,3-Difluoro-1-(3-(methylcarbamoyl)-7-(trifluoromethyl)thieno[3,2-b]pyridin-5-yl)piperidin-4-yl isopropylcarbamate], the IC50 is < 100 nM.

On to `CNC(=O)c1csc2c(C(F)(F)F)cc(O[C@@H]3CCN(C(=O)OCCOC(F)(F)F)[C@@H](C)C3)nc12` (racemic) [Example 369, (+/−)-trans-2-(Trifluoromethoxy)ethyl-2-methyl-4-((3-(methylcarbamoyl)-7-(trifluoromethyl)thieno[3,2-b]pyridin-5-yl)oxy)piperidine-1-carboxylate], for which the IC50 is < 100 nM.

With `CNC(=O)c1csc2c(C(F)(F)F)cc(O[C@H]3CN(C(=O)OCC4CC4)C[C@H]3F)nc12` (racemic) [Example 610, Cyclopropylmethyl (+/−)-cis-3-fluoro-4-((3-(methylcarbamoyl)-7-(trifluoromethyl)thieno[3,2-b]pyridin-5-yl)oxy)pyrrolidine-1-carboxylate], the IC50 is < 100 nM.

In the case of `CNC(=O)c1csc2c(C(F)(F)F)cc(O[C@H]3CCN(C(=O)OCCOC(F)(F)F)C3)nc12` [Example 600, 2-(Trifluoromethoxy)ethyl (S)-3-((3-(methylcarbamoyl)-7-(trifluoromethyl)thieno[3,2-b]pyridin-5-yl)oxy)pyrrolidine-1-carboxylate], the IC50 was < 100 nM.

`CNC(=O)c1csc2c(C(F)(F)F)c(C)c(O[C@H]3C[C@@H](NC(=O)O[C@@H](C)C4CC4)C3)nc12` [Example 220, (S)-1-Cyclopropylethyl ((1S,3R)-3-((6-methyl-3-(methylcarbamoyl)-7 (trifluoromethyl)thieno[3,2-b]pyridin-5-yl)oxy)cyclobutyl)carbamate]: the IC50 was < 100 nM.
